SMILES strings stand for the structures.

The term IC50 denotes the point on the concentration scale where inhibition reaches its midpoint.

In the assay the target is T1, yeast proteasome (Saccharomyces cerevisiae, UniProt P30656).
T1 construct: gene PRE2; yeast proteasome (TUM Groll group); with other subunits of the yeast proteasome
T1 sequence (P30656 76-287): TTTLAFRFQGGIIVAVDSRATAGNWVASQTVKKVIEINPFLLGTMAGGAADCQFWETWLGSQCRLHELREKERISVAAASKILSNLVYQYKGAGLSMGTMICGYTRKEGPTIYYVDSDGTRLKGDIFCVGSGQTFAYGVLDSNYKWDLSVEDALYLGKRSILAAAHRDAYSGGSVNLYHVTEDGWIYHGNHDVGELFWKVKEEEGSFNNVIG
The experiment in a line: fluorescence intensity assay with Suc-Leu-Leu-Val-Tyr-AMC substrate. The class given is biochemical.

With `COc1ccc(C[C@H](NC(=O)[C@H](C)NC(=O)CN2CCOCC2)C(=O)N[C@@H](Cc2ccccc2)C(=O)[C@@]2(C)CO2)cc1` [ONX-0914], the IC50 turned out to be 36.6 pM.
